Where two headings read alike, the source gives them in different places.
Key:
human FXIIa = molecular target: T1, human FXIIa (Homo sapiens, UniProt P00748); test: Direct inhibition of human FXIIa, chromogenic substrate hydrolysis assay; settings: for HS (Hill slope) / ΔY (%) efficacy of inhibition: pH 7.4, 37 °C; for significant inhibitory activity against FXIIa in the screening: at 200 μM
T1 sequence (P00748 373-615 limits assumed): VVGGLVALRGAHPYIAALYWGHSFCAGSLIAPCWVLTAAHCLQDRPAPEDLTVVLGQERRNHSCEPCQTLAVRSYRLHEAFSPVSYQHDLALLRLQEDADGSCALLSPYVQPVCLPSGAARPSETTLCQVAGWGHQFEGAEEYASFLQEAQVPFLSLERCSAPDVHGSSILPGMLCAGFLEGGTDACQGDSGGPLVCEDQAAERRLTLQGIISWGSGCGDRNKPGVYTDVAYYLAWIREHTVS
T1 sequence (P00748 20-372 partner limits assumed): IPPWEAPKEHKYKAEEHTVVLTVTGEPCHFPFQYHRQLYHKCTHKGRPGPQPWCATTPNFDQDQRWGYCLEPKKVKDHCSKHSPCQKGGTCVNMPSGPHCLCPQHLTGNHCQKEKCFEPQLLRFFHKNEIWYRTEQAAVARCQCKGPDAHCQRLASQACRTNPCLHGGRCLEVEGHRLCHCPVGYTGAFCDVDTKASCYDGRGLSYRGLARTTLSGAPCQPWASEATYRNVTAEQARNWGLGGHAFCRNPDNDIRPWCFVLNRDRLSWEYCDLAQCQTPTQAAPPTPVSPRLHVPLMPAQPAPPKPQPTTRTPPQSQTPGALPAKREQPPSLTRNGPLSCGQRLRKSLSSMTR
Protocol: The slope of the resulting line corresponds to the residual enzyme activity, and the change in residual enzyme activity, relative to the concentration of the inhibitor, is plotted and fitted using the logistic eq 1. […] In this setup, each well of the 96-well microplate contained 175 μL of pH 7.4 TrisHCl buffer, to which 5 μL of potential inhibitors (or vehicle) and 5 μL of human FXIIa (stock concentration: 200 nM) were added sequentially. […] The relative residual FXIIa activity at each inhibitor concentration was computed by comparing the FXIIa activity in the absence and presence of the inhibitor. To obtain the potency (IC50) and efficacy (ΔY) of inhibition, the dose dependence of residual FXIIa activity was fitted to the logistic eq 1.

human plasma [1] = tested on: human plasma; set-up: method as in PMID 36321236; settings: previously reported inhibitor, in figure; read-out: APTT (EC×1.5); cited from earlier work
thrombin (factor IIa) [2] = molecular target: T2, thrombin (factor IIa) (Homo sapiens, UniProt P00734); set-up: method as in PMID 36321236; settings: previously reported inhibitor, in figure; read-out: FIIa IC50; cited from earlier work
T2 construct: The prothrombinase complex converts prothrombin (FII) to thrombin (FIIa); purchased Haematologic Technologies (Essex Junction, VT); host or cells: human plasma

FIXa = molecular target: T3, FIXa (Homo sapiens, UniProt P00740); test: Inhibition of FIXa, chromogenic substrate hydrolysis assay; type: biochemical; settings: for IC50: FIXa, pH 7.4, 37 °C
T3 construct: purchased Haematologic Technologies (Essex Junction, VT); host or cells: human plasma
T3 sequence (P00740 227-461 limits assumed): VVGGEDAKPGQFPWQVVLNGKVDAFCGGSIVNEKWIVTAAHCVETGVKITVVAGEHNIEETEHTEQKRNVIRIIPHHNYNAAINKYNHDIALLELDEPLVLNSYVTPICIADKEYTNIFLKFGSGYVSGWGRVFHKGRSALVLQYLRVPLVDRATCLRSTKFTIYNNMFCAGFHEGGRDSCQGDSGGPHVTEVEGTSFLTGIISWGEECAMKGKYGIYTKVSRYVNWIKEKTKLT
T3 sequence (P00740 47-191 partner limits assumed): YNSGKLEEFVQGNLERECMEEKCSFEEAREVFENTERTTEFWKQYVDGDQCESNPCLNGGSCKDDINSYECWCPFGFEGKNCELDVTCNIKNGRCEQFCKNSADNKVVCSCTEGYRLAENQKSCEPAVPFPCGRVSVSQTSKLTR
Protocol: (§1) The selectivity was evaluated against thrombin and factors IXa, Xa, and XIa.
(§2) These assays were performed by using substrates and conditions appropriate for the enzyme being studied. To conduct selectivity analysis, various concentrations of the inhibitors were utilized, and the residual enzyme activity was assessed at each concentration. […] This allowed for the determination of the corresponding IC50 and efficacy of the enzyme–inhibitor complex. The KM of the chromogenic substrate with its enzyme was employed to ascertain the concentration of the chromogenic substrate used in the inhibition studies.

FXIa = molecular target: T4, FXIa (Homo sapiens, UniProt P03951); test: Inhibition of FXIa, chromogenic substrate hydrolysis assay; type: biochemical; settings: for IC50: pH 7.4, 37 °C
T4 construct: purchased Haematologic Technologies (Essex Junction, VT); host or cells: human plasma
T4 sequence (P03951 388-625 limits assumed): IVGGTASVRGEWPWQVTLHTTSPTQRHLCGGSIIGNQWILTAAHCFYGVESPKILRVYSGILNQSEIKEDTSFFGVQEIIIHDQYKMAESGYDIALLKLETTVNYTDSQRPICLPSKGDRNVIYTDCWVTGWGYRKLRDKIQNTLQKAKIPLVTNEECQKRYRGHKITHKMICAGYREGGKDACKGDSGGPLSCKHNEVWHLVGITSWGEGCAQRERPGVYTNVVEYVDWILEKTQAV
T4 sequence (P03951 19-387 partner limits assumed): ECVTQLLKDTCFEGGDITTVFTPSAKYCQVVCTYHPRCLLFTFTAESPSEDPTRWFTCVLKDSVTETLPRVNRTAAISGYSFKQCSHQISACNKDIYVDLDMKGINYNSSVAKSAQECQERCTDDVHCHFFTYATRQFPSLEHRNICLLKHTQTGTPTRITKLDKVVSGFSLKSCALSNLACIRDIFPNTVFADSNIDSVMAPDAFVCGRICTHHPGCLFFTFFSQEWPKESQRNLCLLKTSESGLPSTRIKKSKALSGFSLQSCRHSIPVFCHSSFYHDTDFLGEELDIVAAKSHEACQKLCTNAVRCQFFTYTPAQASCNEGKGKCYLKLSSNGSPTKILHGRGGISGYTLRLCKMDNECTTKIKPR
Protocol: as §1, §2

human plasma [3] = test: Activated partial thromboplastin time (APTT) clotting assay; type: biochemical
Protocol: The APTT assay is employed to assess the impact of a new potential anticoagulant on clotting driven by the contact/intrinsic pathway, involving FIXa, FXIa, and FXIIa. Conversely, the PT assay is utilized to gauge the impact of the new potential anticoagulant on the extrinsic pathway of coagulation, which includes FVIIa. […] In the PT assay, thromboplastin-D was created by adding 4 mL of distilled water, and the resulting mixture was warmed to 37 °C. […] Upon the addition of 200 μL of prewarmed thromboplastin-D reagent, the clotting time was recorded. In the APTT assay, 90 μL of citrated human plasma was combined with 10 μL of the molecule of interest (or the vehicle) and 100 μL of prewarmed 0.2% ellagic acid. Following a 4 min incubation at 37 °C, clotting was initiated by introducing 100 μL of prewarmed 0.025 M CaCl2, and the clotting time was recorded. In both assays, approximately nine or more concentrations of molecules were employed to generate concentration vs effect profiles. The data were then plotted against a quadratic trendline, enabling the estimation of the concentration required to double the clotting time. Clotting times were similarly measured using 10 μL of highly purified water (negative control). The positive controls used in APTT and PT assays were (1) UFH, antithrombin activator; (2) argatroban, a clinically used thrombin inhibitor; (3) rivaroxaban, a clinically used FXa inhibitor; and (4) C6B7, a monoclonal antibody FXIIa inhibitor.

thrombin (factor IIa) [4] = molecular target: T2, thrombin (factor IIa); test: Inhibition of thrombin, chromogenic substrate hydrolysis assay; type: biochemical; settings: for HS (Hill slope) / ΔY (%) / IC50: thrombin; for selectivity index (IC50 enzyme/IC50 FXIIa): thrombin over FXIIa; for IC50: pH 7.4, 37 °C
Protocol: as §1, §2

FXa = molecular target: T5, FXa (Homo sapiens, UniProt P00742); test: Inhibition of FXa, chromogenic substrate hydrolysis assay; type: biochemical
T5 construct: purchased Haematologic Technologies (Essex Junction, VT); host or cells: human plasma
T5 sequence (P00742 235-488 limits assumed): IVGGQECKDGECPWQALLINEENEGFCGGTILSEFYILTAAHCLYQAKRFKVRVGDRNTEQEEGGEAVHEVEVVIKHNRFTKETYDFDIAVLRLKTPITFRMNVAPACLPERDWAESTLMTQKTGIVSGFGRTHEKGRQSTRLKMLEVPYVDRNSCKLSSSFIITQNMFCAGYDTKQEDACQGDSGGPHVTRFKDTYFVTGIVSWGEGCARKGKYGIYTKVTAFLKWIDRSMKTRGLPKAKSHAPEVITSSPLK
T5 sequence (P00742 41-179 partner limits assumed): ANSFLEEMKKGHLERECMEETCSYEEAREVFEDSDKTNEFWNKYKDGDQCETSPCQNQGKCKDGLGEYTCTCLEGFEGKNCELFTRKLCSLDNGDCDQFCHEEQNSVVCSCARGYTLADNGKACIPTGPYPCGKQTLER
Protocol: as §1, §2

human plasma [5] = test: Prothrombin time (PT) clotting assay; type: biochemical; settings: highest concentration of 2500 μM
Protocol: The APTT assay is employed to assess the impact of a new potential anticoagulant on clotting driven by the contact/intrinsic pathway, involving FIXa, FXIa, and FXIIa. Conversely, the PT assay is utilized to gauge the impact of the new potential anticoagulant on the extrinsic pathway of coagulation, which includes FVIIa. […] In the PT assay, thromboplastin-D was created by adding 4 mL of distilled water, and the resulting mixture was warmed to 37 °C. […] Upon the addition of 200 μL of prewarmed thromboplastin-D reagent, the clotting time was recorded. In the APTT assay, 90 μL of citrated human plasma was combined with 10 μL of the molecule of interest (or the vehicle) and 100 μL of prewarmed 0.2% ellagic acid. Following a 4 min incubation at 37 °C, clotting was initiated by introducing 100 μL of prewarmed 0.025 M CaCl2, and the clotting time was recorded. In both assays, approximately nine or more concentrations of molecules were employed to generate concentration vs effect profiles. The data were then plotted against a quadratic trendline, enabling the estimation of the concentration required to double the clotting time. Clotting times were similarly measured using 10 μL of highly purified water (negative control). […]

[6] = human FXIIa, Tris–HCl buffer pH 7.4, 37 °C

## COC(=O)c1nc(N)n(C(=O)c2ccc(C(C)(C)C)cc2)n1 [RA, reference compound]
Human FXIIa; [6]
  IC50: 0.11 ± 0.01 µM
Human FXIIa; human FXIIa
  HS (Hill slope): 1.7 ± 0.4
  ΔY (%) efficacy of inhibition: 105 ± 8%
Human plasma [1]
  EC50: 340 µM
Thrombin (factor IIa) [2]
  IC50: 0.235 µM

## COC(=O)c1nc(N)n(C(=O)c2ccccc2Cl)n1 [compound 7]
FIXa
  IC50: > 200 µM
FXIa; FXIa
  IC50: 25.9 ± 4.4 µM
Human FXIIa
  IC50: 1.7 µM

## COC(=O)c1nc(N)n(C(=O)c2cc(OC)c(OC)c(OC)c2)n1 [compound 8]
Human plasma [3]; relative to RA
  fold increased potency regarding the effect on APTT: ~6 fold
FIXa; FIXa over FXIIa
  selectivity index (IC50 enzyme/IC50 FXIIa): >4000
FIXa
  IC50: > 180 µM
FXIa; FXIa
  HS (Hill slope): 0.9 ± 0.1
  ΔY (%): 100.3 ± 3.1%
  IC50: 14.9 ± 1.4 µM
FXIa; FXIa over FXIIa
  selectivity index (IC50 enzyme/IC50 FXIIa): 331.11
Human FXIIa
  IC50: 0.045 ± 0.003 µM
Human FXIIa; human FXIIa
  HS (Hill slope): 1.1 ± 0.1
  ΔY (%) efficacy of inhibition: 100 ± 2%
Thrombin (factor IIa) [4]
  HS (Hill slope): 0.9 ± 0.2
  ΔY (%): 102.0 ± 4.5%
  selectivity index (IC50 enzyme/IC50 FXIIa): 0.42
  IC50: 0.019 ± 0.004 µM
FXa; FXa
  HS (Hill slope): 1.2 ± 0.2
  ΔY (%): 100.8 ± 2.7%
FXa; FXa over FXIIa
  selectivity index (IC50 enzyme/IC50 FXIIa): 1057.78
FXa; FXa, pH 7.4, 37 °C
  IC50: 47.6 ± 5.8 µM

## COC(=O)c1nc(N)n(C(=O)c2ccccc2)n1 [compound 9]
FXIa; FXIa
  IC50: > 50 µM
Human FXIIa; human FXIIa
  IC50: 0.24 ± 0.01 µM
  HS (Hill slope): 1.1 ± 0.1
  ΔY (%) efficacy of inhibition: 92 ± 3%
Thrombin (factor IIa) [4]
  HS (Hill slope): 1.1 ± 0.2
  ΔY (%): 89 ± 5%
  selectivity index (IC50 enzyme/IC50 FXIIa): 0.23
  IC50: 0.054 ± 0.008 µM

## CC(C)(C)c1ccc(C(=O)n2ncnc2N)cc1 [compound 10]
Human FXIIa; FXIIa, summary picture in supplement
  IC50: 8.5 µM
Human FXIIa; [6]
  IC50: 8.5 ± 1.2 µM
Human FXIIa; human FXIIa
  HS (Hill slope): 1.4 ± 0.7
  ΔY (%) efficacy of inhibition: 82 ± 8%
Human FXIIa; than inhibitor RA
  fold less potent FXIIa inhibitor: 77.3 fold

## Cc1ccc(S(=O)(=O)n2cnc([N+](=O)[O-])n2)cc1 [compound 12]
Human FXIIa
  significant inhibitory activity against FXIIa in the screening: none

## O=C(O)c1nc(NS(=O)(=O)c2ccccc2[N+](=O)[O-])n[nH]1 [compound 13]
Human plasma [3]; highest concentration of 2500 μM
  effect on APTT: did not affect
Human FXIIa
  significant inhibitory activity against FXIIa in the screening: none
Human plasma [5]
  effect on PT: did not affect

## O=C(O)c1ncn(-c2ccccc2)n1 [compound 14]
Human FXIIa
  significant inhibitory activity against FXIIa in the screening: none

## O=C(O)Cc1nc(-c2ccccc2)n[nH]1 [compound 15]
Human FXIIa
  significant inhibitory activity against FXIIa in the screening: none
